The record followed here is patent US9452225B2, “GLP-1 prodrugs” (Novo Nordisk A/S, priority 2012, dated 2016).

Where two headings read alike, the source gives them in different places. Numbered stars: 1 amine (or outer) side, 2 acyl side, 3 side chain; on linkers, the order of the positions; unused ones are H or OH. Square brackets hold non-standard residues; d marks the D form. Side chains are listed from the residue outwards. Peptide text beside a SMILES is read from it. * marks the point of attachment. Decanoyl(10-(4-HOOC-PhO)) = O=C(O)c1ccc(OCCCCCCCCCC(=O)*)cc1; Lac(3-(imidazol-4-yl)) = O=C(O)[C@@H](O)Cc1c[nH]cn1; C18 diacid = O=C(O)CCCCCCCCCCCCCCCCC(=O)*; γGlu = O=C(O)[C@H](CCC(=O)[*:2])N[*:1]; NMeI = CC[C@H](C)[C@H](NC)C(=O)O; AEEA = NCCOCCOCC(=O)O; Aib = CC(C)(N)C(=O)O; Glycolyl = O=C(CO)*; Sar = CNCC(=O)O

Data set [1] is described as follows: Prodrug half-life in vitro, plasma method (minipig heparin plasma). It counts as in vitro ADME. The conditions noted are these: minipig heparin plasma 800 μL + 200 μL 200 mM phosphate pH 7.4, 37° C.; UPLC_A, or UPLC_B for compounds marked *; read-out: T½ in plasma (converted). On the procedure: (§1) The purpose of this example is to test the in vitro half-lives (T½) of the GLP-1 prodrugs of the invention, in comparison to conceptually different prodrugs. In what follows two in vitro methods are described, viz. a method conducted in buffer, and a method conducted in plasma.
(§2) The half life of the prodrug (T½) was calculated from the slope of a linear fit to the curve of ln(% prodrug (Y)) as a function of time (t), as follows: Y=÷αt+k Math. 1 T½=ln(2)/α Math. 2 Plasma Method Buffer: 200 mM Phosphate, pH 7.4 at 37° C.
NaH2PO4.2H2O (15.61 g, 100 mmol) was dissolved in milliQ water (approximately 450 mL) and adjusted to pH=7.44 at approximately 20° C. with concentrated NaOH (aq) and 1 M NaOH (aq). Water was added to 500.00 mL.
Serum: Minipig Serum, Heparin-Plasma
Fresh blood was tapped from minipig into 9 mL LH lithium heparin Vacuette tubes from Greiner bio-one (catalogue number 455084). After cooling on ice it was centrifuged (10 min, 4° C., 3000 rpm/1942G) and the supernatant isolated and kept at −18° C. before use.
100 nmol of the compound to be tested was dissolved in 200 μL buffer, added to 800 μL plasma (centrifuged), and incubated at 37° C. Samples (50 μL) were drawn at appropriate intervals into 150 μL absolute EtOH. After a short stirring the sample was centrifuged and the supernatant transferred to the UPLC vial (10 μL injection).
The % parent drug compared to prodrug formed as a function of time was evaluated by UPLC, and the half-life calculated, both in the same way as described above under the Buffer method.

Data set [2] in a line: Prodrug half-life in vitro, buffer method. It counts as physicochemical. The procedure: as §1
Buffer: 25 mM Phosphate (Ionic strength: 154 mM, pH 7.4 at 37° C.)
NaH2PO4.2H2O (1.95 g, 12.5 mmol) and NaCl (2.61 g, 44.7 mmol) were dissolved in millipore water (approximately 450 mL) and adjusted to pH=7.44 at approximately 20° C. with concentrated NaOH and 1 M NaOH. Water was added to 500.00 mL.
The compound to be tested was dissolved in buffer to a concentration of 1.0 mg/mL and incubated at 37° C. Samples were taken at adequate intervals and the % parent drug compared to prodrug formed as function of time was evaluated by the UPLC method as referred to in Table 1 by comparing the areas under the curves for the two corresponding peaks. These UPLC methods are described in the general experimental section above (UPLC_A, and UPLC_B).
as §2
The resulting half-lives are set out in Table 1 below. For comparison, the T½ in buffer of native GLP-1(7-37) (His7 variant of SEQ ID NO: 1) was 13 minutes (0.2 hours).

[3] abbreviates: 25 mM phosphate buffer pH 7.4, 37° C., 1.0 mg/mL, UPLC_A, or UPLC_B for compounds marked *, read-out: T½ in buffer (converted).

Take `CC[C@H](C)[C@H](NC(=O)[C@H](Cc1ccccc1)NC(=O)[C@H](CCC(=O)O)NC(=O)[C@H](CCCNC(=N)N)NC(=O)[C@@H](NC(=O)[C@H](C)NC(=O)[C@H](CCC(N)=O)NC(=O)[C@H](CCC(=O)O)NC(=O)[C@H](CCC(=O)O)NC(=O)[C@H](CC(C)C)NC(=O)[C@H](Cc1ccc(O)cc1)NC(=O)[C@H](CCCCNC(=O)COCCOCCNC(=O)COCCOCCNC(=O)CC[C@H](NC(=O)CCCCCCCCCOc1ccc(C(=O)O)cc1)C(=O)O)NC(=O)[C@H](CO)NC(=O)[C@@H](NC(=O)[C@H](CC(=O)O)NC(=O)[C@H](CO)NC(=O)[C@@H](NC(=O)[C@H](Cc1ccccc1)NC(=O)[C@@H](NC(=O)CNC(=O)[C@H](CCC(=O)O)NC(=O)[C@H](C)NC(=O)[C@H](Cc1c[nH]cn1)OC(=O)[C@@H](NC(=O)CNC)C(C)C)[C@@H](C)O)[C@@H](C)O)C(C)C)C(C)C)C(=O)N[C@@H](C)C(=O)N[C@@H](CCCCNC(=O)COCCOCCNC(=O)COCCOCCNC(=O)CC[C@H](NC(=O)CCCCCCCCCOc1ccc(C(=O)O)cc1)C(=O)O)C(=O)N[C@@H](CC(C)C)C(=O)N[C@H](C(=O)N[C@@H](CCCNC(=N)N)C(=O)NCC(=O)N[C@@H](CCCNC(=N)N)C(=O)NCC(=O)O)C(C)C` [Example 1] (H-[Sar]V[Lac(3-(imidazol-4-yl))]AEGTFTSDVSK([AEEA-AEEA-γGlu-Decanoyl(10-(4-HOOC-PhO))])YLEEQAVREFIAK([AEEA-AEEA-γGlu-Decanoyl(10-(4-HOOC-PhO))])LVRGRG-OH): in data set [1], the half-life was 3.6 h. Also, the half-life at 1 mg/mL in data set [2] (setting [3]) was 9.6 h. `CC[C@H](C)[C@H](NC(=O)[C@H](Cc1ccccc1)NC(=O)[C@H](CCC(=O)O)NC(=O)[C@H](CCCNC(=N)N)NC(=O)[C@@H](NC(=O)[C@H](C)NC(=O)[C@H](CCC(N)=O)NC(=O)[C@H](CCC(=O)O)NC(=O)[C@H](CCC(=O)O)NC(=O)[C@H](CC(C)C)NC(=O)[C@H](Cc1ccc(O)cc1)NC(=O)[C@H](CCCCNC(=O)COCCOCCNC(=O)COCCOCCNC(=O)CC[C@H](NC(=O)CCCCCCCCCOc1ccc(C(=O)O)cc1)C(=O)O)NC(=O)[C@H](CO)NC(=O)[C@@H](NC(=O)[C@H](CC(=O)O)NC(=O)[C@H](CO)NC(=O)[C@@H](NC(=O)[C@H](Cc1ccccc1)NC(=O)[C@@H](NC(=O)CNC(=O)[C@H](CCC(=O)O)NC(=O)[C@H](C)NC(=O)[C@H](Cc1c[nH]cn1)OC(=O)[C@@H](NC(=O)CN)C(C)C)[C@@H](C)O)[C@@H](C)O)C(C)C)C(C)C)C(=O)N[C@@H](C)C(=O)N[C@@H](CCCCNC(=O)COCCOCCNC(=O)COCCOCCNC(=O)CC[C@H](NC(=O)CCCCCCCCCOc1ccc(C(=O)O)cc1)C(=O)O)C(=O)N[C@@H](CC(C)C)C(=O)N[C@H](C(=O)N[C@@H](CCCNC(=N)N)C(=O)NCC(=O)N[C@@H](CCCNC(=N)N)C(=O)NCC(=O)O)C(C)C` [Example 1a] (H-GV[Lac(3-(imidazol-4-yl))]AEGTFTSDVSK([AEEA-AEEA-γGlu-Decanoyl(10-(4-HOOC-PhO))])YLEEQAVREFIAK([AEEA-AEEA-γGlu-Decanoyl(10-(4-HOOC-PhO))])LVRGRG-OH): in data set [2] (setting [3]), the half-life at 1 mg/mL was 1.5 h. Regarding `CC[C@H](C)[C@H](N)C(=O)N[C@H](C(=O)O[C@@H](Cc1c[nH]cn1)C(=O)NC(C)(C)C(=O)N[C@@H](CCC(=O)O)C(=O)NCC(=O)N[C@H](C(=O)N[C@@H](Cc1ccccc1)C(=O)N[C@H](C(=O)N[C@@H](CO)C(=O)N[C@@H](CC(=O)O)C(=O)N[C@H](C(=O)N[C@@H](CO)C(=O)N[C@@H](CO)C(=O)N[C@@H](Cc1ccc(O)cc1)C(=O)N[C@@H](CC(C)C)C(=O)N[C@@H](CCC(=O)O)C(=O)N[C@@H](CCC(=O)O)C(=O)N[C@@H](CCC(N)=O)C(=O)N[C@@H](C)C(=O)N[C@@H](C)C(=O)N[C@@H](CCCNC(=N)N)C(=O)N[C@@H](CCCCNC(=O)COCCOCCNC(=O)COCCOCCNC(=O)CC[C@H](NC(=O)CCCCCCCCCCCCCCCCC(=O)O)C(=O)O)C(=O)N[C@@H](Cc1ccccc1)C(=O)N[C@H](C(=O)N[C@@H](C)C(=O)N[C@@H](Cc1c[nH]c2ccccc12)C(=O)N[C@@H](CC(C)C)C(=O)N[C@H](C(=O)N[C@@H](CCCNC(=N)N)C(=O)NCC(=O)N[C@@H](CCCNC(=N)N)C(=O)NCC(=O)O)C(C)C)[C@@H](C)CC)C(C)C)[C@@H](C)O)[C@@H](C)O)C(C)C` [Example 6a] (H-IV[Lac(3-(imidazol-4-yl))][Aib]EGTFTSDVSSYLEEQAARK([AEEA-AEEA-γGlu-C18 diacid])FIAWLVRGRG-OH), the half-life at 1 mg/mL in data set [2] (buffer, pH 7.4) was 11 h. On to `CC[C@H](C)[C@H](NC)C(=O)N[C@H](C(=O)O[C@@H](Cc1c[nH]cn1)C(=O)NC(C)(C)C(=O)N[C@@H](CCC(=O)O)C(=O)NCC(=O)N[C@H](C(=O)N[C@@H](Cc1ccccc1)C(=O)N[C@H](C(=O)N[C@@H](CO)C(=O)N[C@@H](CC(=O)O)C(=O)N[C@H](C(=O)N[C@@H](CO)C(=O)N[C@@H](CO)C(=O)N[C@@H](Cc1ccc(O)cc1)C(=O)N[C@@H](CC(C)C)C(=O)N[C@@H](CCC(=O)O)C(=O)N[C@@H](CCC(=O)O)C(=O)N[C@@H](CCC(N)=O)C(=O)N[C@@H](C)C(=O)N[C@@H](C)C(=O)N[C@@H](CCCNC(=N)N)C(=O)N[C@@H](CCCCNC(=O)COCCOCCNC(=O)COCCOCCNC(=O)CC[C@H](NC(=O)CCCCCCCCCCCCCCCCC(=O)O)C(=O)O)C(=O)N[C@@H](Cc1ccccc1)C(=O)N[C@H](C(=O)N[C@@H](C)C(=O)N[C@@H](Cc1c[nH]c2ccccc12)C(=O)N[C@@H](CC(C)C)C(=O)N[C@H](C(=O)N[C@@H](CCCNC(=N)N)C(=O)NCC(=O)N[C@@H](CCCNC(=N)N)C(=O)NCC(=O)O)C(C)C)[C@@H](C)CC)C(C)C)[C@@H](C)O)[C@@H](C)O)C(C)C` [Example 6] (H-[NMeI]V[Lac(3-(imidazol-4-yl))][Aib]EGTFTSDVSSYLEEQAARK([AEEA-AEEA-γGlu-C18 diacid])FIAWLVRGRG-OH), for which the half-life at 1 mg/mL in data set [2] (buffer, pH 7.4) is 45.6 h. With `CC[C@H](C)[C@H](NC(=O)[C@H](Cc1ccccc1)NC(=O)[C@H](CCC(=O)O)NC(=O)[C@H](CCCNC(=N)N)NC(=O)[C@@H](NC(=O)[C@H](C)NC(=O)[C@H](CCC(N)=O)NC(=O)[C@H](CCC(=O)O)NC(=O)[C@H](CCC(=O)O)NC(=O)[C@H](CC(C)C)NC(=O)[C@H](Cc1ccc(O)cc1)NC(=O)[C@H](CCCCNC(=O)COCCOCCNC(=O)COCCOCCNC(=O)CC[C@H](NC(=O)CCCCCCCCCOc1ccc(C(=O)O)cc1)C(=O)O)NC(=O)[C@H](CO)NC(=O)[C@@H](NC(=O)[C@H](CC(=O)O)NC(=O)[C@H](CO)NC(=O)[C@@H](NC(=O)[C@H](Cc1ccccc1)NC(=O)[C@@H](NC(=O)CNC(=O)[C@H](CCC(=O)O)NC(=O)[C@H](C)NC(=O)[C@H](Cc1c[nH]cn1)OC(=O)[C@@H](NC(=O)CO)C(C)C)[C@@H](C)O)[C@@H](C)O)C(C)C)C(C)C)C(=O)N[C@@H](C)C(=O)N[C@@H](CCCCNC(=O)COCCOCCNC(=O)COCCOCCNC(=O)CC[C@H](NC(=O)CCCCCCCCCOc1ccc(C(=O)O)cc1)C(=O)O)C(=O)N[C@@H](CC(C)C)C(=O)N[C@H](C(=O)N[C@@H](CCCNC(=N)N)C(=O)NCC(=O)N[C@@H](CCCNC(=N)N)C(=O)NCC(=O)O)C(C)C` [Example 1b] (Glycolyl-V[Lac(3-(imidazol-4-yl))]AEGTFTSDVSK([AEEA-AEEA-γGlu-Decanoyl(10-(4-HOOC-PhO))])YLEEQAVREFIAK([AEEA-AEEA-γGlu-Decanoyl(10-(4-HOOC-PhO))])LVRGRG-OH), the half-life at 1 mg/mL in data set [2] (setting [3]) is 0.65 h.
